According to patent publication US20230226103A1, “COMPOSITION FOR TREATING AND/OR PREVENTING COGNITIVE IMPAIRMENT OR DEMENTIA” (MiZ Company Limited, priority 2018, published 2023):
Several values for one entry are separate records, joined by “and”; a condition that tells them apart may be missing. Equal entries are not always repeated. Where two headings read alike, the source gives them in different places.

What was measured:
[1] = 4% hydrogen gas 15 minutes per day over 4 weeks
Protocol: (§1) Elderly women living in a community (n=13, 68.0±3.0 years old, body weight: 66.9±10.3 kg, height: 161.1±5.8 cm) volunteered for participants for the present open-label preliminary experiment (registered in ClinicalTrials.gov, NCT02830854). Individuals with a serious disease or a mental disease had been excluded as they met the exclusion criteria. This study was conducted according to the guideline of the Declaration of Helsinki, and the local ethics committee approved the protocol of the present clinical study. The participants all gave informed consent, and were each asked to keep their usual lifestyle and take meals as usual during the study. […] Mini Mental State Examination (MMSE) scores before the initiation of the study and 4 weeks thereafter were used to evaluate the therapeutic effect. In addition, assessment of other cognitive ability markers and evaluation of side effects were conducted based on the results before the initiation of the study and 4 weeks thereafter. The cognitive functions of the participants were evaluated by using the MMSE and the Alzheimer's Disease Assessment Scale-Cognitive subscale (ADAS-Cog). The MMSE is a 30-point questionnaire widely used in clinical practice to determine the degree of cognitive impairment of an elderly individual. The ADAS-Cog is a method, consisting of 11 tasks, of assessing cognitive abilities, and determines memory impairment, language impairment, praxis impairment, attention deficits, and other cognitive abilities to test for dementia. In addition to the assessments, the participants were asked to report adverse events during the study through self-assessment or an open-ended questionnaire on side effects (e.g., queasy feeling, headache). Statistical significance was determined by using a Wilcoxon signed-rank test (before the initiation of the study vs. 4 weeks thereafter). If p≤0.05 was satisfied, the result was considered statistically significant.

[2] = test system: cognitive functions of women aged 65 years or more
Protocol: as §1

[3] = test system: patients with mild to moderate dementia of the Alzheimer's type; conditions: 10 mg donepezil, 24-week (6-month) administration; rating score 0 to 70 points; cited from earlier work

Row | Compound | Adverse events / side effects associated with inhalation [1] | Adverse events / side effects associated with inhalation ([1]; listed as hydrogen gas) | ADAS-Cog Language reproduction test After 4 weeks ([2]; 4% H2 inhaled 15 minutes per day over 4 weeks, baseline 3.6 ± 1.0) | ADAS-Cog Language recognition After 4 weeks ([2]; 4% H2 inhaled 15 minutes per day over 4 weeks, baseline 4.2 ± 3.2) | ADAS-Cog Language recognition % change ([2]; after 4 weeks vs baseline) | ADAS-Cog Language reproduction test % change ([2]; after 4 weeks vs baseline) | MMSE Total score % change ([2]; after 4 weeks vs baseline, 4% H2 inhaled 15 minutes per day) | Number of women whose MMSE scores increased ([2]; among 13 women, after administration) | Improvement in ADAS-Cog converted from MMSE (Improvement in MMSE×2.33) ([2]; conversion formula BMC Neurol. 2002, 2:6) | Other 9 items in ADAS-Cog scoring, score ([2]; correctly executed in both tests (baseline and after 4 weeks)) | Cognitive functions (result in words) ([2]; elderly women with mild cognitive impairment, 4% hydrogen gas 15 minutes per day over 4 weeks) | Improvement in the MMSE ([2]; inhalation of hydrogen gas for a month) | Reduction of ADAS-Cog score from the score at initiation of administration [3]
1 | [HH] [H2, hydrogen gas] | no sign of side effects | no adverse event | 8.1 ± 1.2 | 1.1 ± 1.0 | −40.1% | 140.0% | 13.7% and 14.2% | 12 | 8.16 points | 0 | improved to normal levels | 3.50 points | 
2 | COc1cc2c(cc1OC)C(=O)C(CC1CCN(Cc3ccccc3)CC1)C2 (stereo not shown) [donepezil] |  |  |  |  |  |  |  |  |  |  |  |  | approximately 1.4 points
